Like-named read-outs stand apart in the source and are kept apart here.
What was measured:
[1] = in vivo
From the text: Any of the embodiments of this disclosure can be practiced to prevent accumulation of SEP-103 in the body exceeding levels studied and deemed safe in preclinical toxicology studies. […].

hERG = hERG (Homo sapiens, UniProt Q12809); assay: toxicological studies, hERG inhibition; type: biochemical; conditions: concentrations up to 30 μM
[2] = Phase 1 pharmacokinetic study of SEP-363856 in subjects with severe renal impairment and ESRD compared to normal renal function (Example 1)
Protocol: Renal function was assessed according to estimated glomerular filtration rate (eGFR) calculated using the Modification of Diet in Renal Disease (MDRD) equation at Screening and Check-in. Estimates calculated using the Cockcroft-Gault equation were also reported. Subjects in Group 1 had severe renal impairment not requiring dialysis and subjects in Group 2 had ESRD requiring dialysis.
Healthy matched controls with normal renal function were enrolled to match (age, sex, weight, race) across the 2 groups. A healthy control could be matched to more than 1 renally impaired subject. Potential subjects were screened to assess their eligibility to enter the study within 28 days (Day −28 to Day −3) prior to dose administration (Day 1). Each subject completed 1 or 2 treatment periods (1 treatment period for Group 1 and normal healthy subjects with normal renal function and 2 treatment periods for Group 2).
Subjects in Group 1 and the normal healthy subjects were admitted into the Clinical Research Unit (CRU) on Day −2 and confined to the CRU until discharge on Day 5. […] No food was allowed for 4 hours post-dose. Subjects in Group 1 returned to the CRU for a Follow-up visit approximately 7 days after discharge (i.e., Day 12±2).
Subjects in Group 2 followed their established dialysis schedule. They were admitted into the CRU on Day −2 and confined to the CRU until discharge on Day 5. […]

[3] = Phase 1 pharmacokinetic study of SEP-856 in subjects with mild and moderate renal impairment compared to normal renal function (Example 3); conditions: for SEP-383103 AUC0-∞ Geo LS Mean / SEP-383103 Cmax Geo LS Mean: ANOVA; for SEP-383103 AUC0-∞ Geo LS Mean / SEP-383103 Cmax Geo LS Mean / MRAUC (metabolite-to-parent ratio based on AUC0-∞) / SEP-383103 plasma Cmax / SEP-383103 plasma Tmax: n=8; for MRAUC (metabolite-to-parent ratio based on AUC0-∞) / SEP-383103 plasma Cmax: GeoMean; for SEP-383103 plasma Cmax / SEP-383103 plasma Tmax: metabolite after single dose SEP-363856 25 mg; for SEP-383103 plasma Tmax: Median
Protocol: (§1) Renal function was assessed according to estimated glomerular filtration rate (eGFR) calculated using the Modification of Diet in Renal Disease (MDRD) equation at Screening and Check-in.
(§2) Healthy controls with normal renal function were enrolled in an effort to approximately match demographics (age, sex, weight, race) across the 2 groups. Potential subjects were screened to assess their eligibility to enter the study within 28 days (Day −28 to Day −3) prior to dose administration (Day 1).
(§3) Nine healthy controls, 9 subjects with mild renal impairment, and 6 subjects with moderate renal impairment were enrolled.
(§4) Male and female subjects aged between 18 and 70 years (inclusive) with a body mass index (BMI) between 18.0 and 40.0 kg/m^2 (inclusive) were eligible for study inclusion. Subjects were in good health except for specific inclusion criteria related to the status of renal impairment.
(§5) Subjects fasted for a minimum of 8 hours before dosing, and an additional 4 hours post-dose; intake of water was restricted except for the period from 1-hour pre-dose through 1-hour post-dose.
(§6) Final Results: Results were obtained by fitting an ANOVA model to the natural log-transformed PK parameter, with renal function group as fixed effect and subject as random effect. Results were back transformed to obtain the geometric LS mean ratio and 90% CI.

clinical = conditions: both, human, plasma, oral, 25 mg
Protocol: as §1, §2, §3, §4, §5, §6

[4] = final results, Moderate vs Healthy

Sequence of hERG (Q12809 whole entry): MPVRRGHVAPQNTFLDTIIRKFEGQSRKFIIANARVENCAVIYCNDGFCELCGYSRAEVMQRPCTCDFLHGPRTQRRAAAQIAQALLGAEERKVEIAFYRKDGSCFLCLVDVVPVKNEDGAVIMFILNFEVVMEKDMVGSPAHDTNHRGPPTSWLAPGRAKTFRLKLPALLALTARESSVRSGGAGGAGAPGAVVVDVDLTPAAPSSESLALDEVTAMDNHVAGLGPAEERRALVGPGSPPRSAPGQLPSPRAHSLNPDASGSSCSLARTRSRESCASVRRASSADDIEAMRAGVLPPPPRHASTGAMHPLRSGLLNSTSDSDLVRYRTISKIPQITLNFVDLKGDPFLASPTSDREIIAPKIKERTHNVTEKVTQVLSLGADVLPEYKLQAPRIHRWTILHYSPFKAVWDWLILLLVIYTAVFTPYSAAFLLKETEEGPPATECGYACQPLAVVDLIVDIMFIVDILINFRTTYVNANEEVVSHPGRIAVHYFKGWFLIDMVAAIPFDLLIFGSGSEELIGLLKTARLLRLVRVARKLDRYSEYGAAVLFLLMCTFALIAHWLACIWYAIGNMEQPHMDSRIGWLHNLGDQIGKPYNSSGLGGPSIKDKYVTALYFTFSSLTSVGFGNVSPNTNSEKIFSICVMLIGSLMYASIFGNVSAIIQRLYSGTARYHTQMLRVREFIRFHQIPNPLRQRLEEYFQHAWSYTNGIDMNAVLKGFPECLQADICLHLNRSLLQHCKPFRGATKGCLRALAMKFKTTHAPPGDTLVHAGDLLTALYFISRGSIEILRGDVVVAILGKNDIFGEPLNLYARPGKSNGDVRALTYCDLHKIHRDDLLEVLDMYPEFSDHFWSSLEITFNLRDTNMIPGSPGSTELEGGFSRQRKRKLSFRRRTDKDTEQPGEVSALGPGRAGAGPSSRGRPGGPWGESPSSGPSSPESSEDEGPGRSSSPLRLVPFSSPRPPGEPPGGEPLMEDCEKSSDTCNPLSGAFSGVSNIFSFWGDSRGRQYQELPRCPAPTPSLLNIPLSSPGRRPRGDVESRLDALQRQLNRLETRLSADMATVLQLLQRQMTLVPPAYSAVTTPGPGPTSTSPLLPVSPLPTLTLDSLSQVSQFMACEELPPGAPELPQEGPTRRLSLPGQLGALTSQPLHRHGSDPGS

O=C(O)[C@@H]1OCCc2ccsc21 [SEP-383103]
blood concentration studied and deemed to be safe ([1]; dog): 1100 ng/mL
exposure level studied and deemed to be safe ([1]; dog): 12200 ng·h/mL
blood concentration studied and deemed to be safe ([1]; rat): 700 ng/mL
exposure level studied and deemed to be safe ([1]; rat): 11700 ng·h/mL
hERG inhibition (hERG): no hERG inhibition
correlation between exposure (AUC0-∞ and AUC0-last) and renal function ([2]; human, in vivo): strong correlation
metabolite median Tmax versus healthy subjects ([2]; severe renal impairment): delayed substantially
correlation between exposure (AUC0-∞ and Cmax) and degree of renal impairment ([3]; final results): significant correlation
SEP-383103 AUC0-∞ Geo LS Mean ([3]; final results, Mild): 769.5 ng·h/mL
SEP-383103 Cmax Geo LS Mean ([3]; final results, Mild): 54.98 ng/mL
SEP-383103 AUC0-∞ Geo LS Mean ([3]; final results, Moderate): 1043 ng·h/mL
SEP-383103 Cmax Geo LS Mean ([3]; final results, Moderate): 56.30 ng/mL
MRAUC (metabolite-to-parent ratio based on AUC0-∞) ([3]; final results, Healthy): 0.7348
SEP-383103 AUC0-∞ Geo LS Mean Ratio ([3]; final results, Mild vs Healthy): 125.47%
SEP-383103 Cmax Geo LS Mean Ratio ([3]; final results, Mild vs Healthy): 128.43%
MRAUC (metabolite-to-parent ratio based on AUC0-∞) ([3]; final results, Mild): 0.9643
SEP-383103 AUC0-∞ Geo LS Mean Ratio [3, 4]: 170.12%
SEP-383103 Cmax Geo LS Mean Ratio [3, 4]: 131.50%
MRAUC (metabolite-to-parent ratio based on AUC0-∞) ([3]; final results, Moderate): 1.276
SEP-383103 plasma Cmax ([3]; final results, Mild): 54.98 ng/mL
SEP-383103 plasma Tmax ([3]; final results, Mild): 5.000 h
SEP-383103 plasma Cmax ([3]; final results, Moderate): 56.30 ng/mL
SEP-383103 plasma Tmax ([3]; final results, Moderate): 6.000 h
metabolite Tmax change ([3]; mild renal impairment vs healthy): no change
AUC(0-inf) (clinical): 613 ng·h/mL
